From patent US20080064027A1, “TEL/Etv6-mediated inhibition of cell proliferation” (priority 2002, published 2008)

Target: T1, Stat3-ER (UniProt P19785+P40763, G525R)
T1 construct: expressed in transfected cells
Assay: Stat3 oligonucleotide DNA binding assay on nuclear extracts
Format: cell-based
Procedure: DNA binding assays were carried out using cells stimulated with 4HT (1 microM) for 0, 0.3, 1, 2, 4 and 24 hours. […] Samples were centrifuged and the pellet was washed two more times with binding buffer. Proteins were eluted from beads by boiling in 25 microliters of 2× loading buffer (1% DTT, 4% SDS, 20% Glycerol, 0.02% Bromophenol Blue, 0.25 M TrisHCl 1M 6.8 pH) and SDS-PAGE was performed.
DNA binding of Stat3-ER and endogenous Stat3 was monitored by performing Western analysis on the oligonucleotide-bound proteins.

T1 sequence (P40763+P19785 fused P19785:G525R): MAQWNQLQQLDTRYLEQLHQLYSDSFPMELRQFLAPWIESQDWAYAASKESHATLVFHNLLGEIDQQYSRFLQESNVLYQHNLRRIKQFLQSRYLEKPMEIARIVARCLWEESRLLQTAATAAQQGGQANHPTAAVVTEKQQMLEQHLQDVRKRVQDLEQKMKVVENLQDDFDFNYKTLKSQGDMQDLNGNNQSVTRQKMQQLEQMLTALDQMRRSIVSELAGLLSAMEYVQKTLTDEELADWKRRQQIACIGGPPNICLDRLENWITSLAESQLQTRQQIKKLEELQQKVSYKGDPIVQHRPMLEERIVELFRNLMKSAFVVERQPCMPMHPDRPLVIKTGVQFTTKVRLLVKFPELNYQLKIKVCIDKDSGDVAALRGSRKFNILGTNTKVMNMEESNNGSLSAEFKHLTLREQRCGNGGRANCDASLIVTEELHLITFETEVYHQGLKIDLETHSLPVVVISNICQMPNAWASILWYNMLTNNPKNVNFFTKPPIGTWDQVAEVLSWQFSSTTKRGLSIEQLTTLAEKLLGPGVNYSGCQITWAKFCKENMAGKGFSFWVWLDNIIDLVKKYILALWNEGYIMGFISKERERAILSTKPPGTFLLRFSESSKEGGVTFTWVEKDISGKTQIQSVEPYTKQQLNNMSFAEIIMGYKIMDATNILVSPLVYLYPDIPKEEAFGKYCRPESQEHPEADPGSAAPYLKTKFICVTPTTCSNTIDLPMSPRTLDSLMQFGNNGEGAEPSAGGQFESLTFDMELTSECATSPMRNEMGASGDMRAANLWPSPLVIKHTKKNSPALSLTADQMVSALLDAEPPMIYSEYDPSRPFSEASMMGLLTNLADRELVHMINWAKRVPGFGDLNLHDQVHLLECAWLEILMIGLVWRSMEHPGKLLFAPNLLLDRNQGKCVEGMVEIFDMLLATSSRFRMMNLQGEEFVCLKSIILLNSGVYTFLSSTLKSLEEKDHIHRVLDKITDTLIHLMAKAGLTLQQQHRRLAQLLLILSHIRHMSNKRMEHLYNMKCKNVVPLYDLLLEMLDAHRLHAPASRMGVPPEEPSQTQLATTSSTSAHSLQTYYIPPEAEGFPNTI

Row | Compound | endogenous Stat3 DNA binding after OSM addition (cells pretreated with 4HT for 24 hrs) | Stat3-ER DNA binding in the presence of OSM (cells pretreated with 4HT for 24 hrs, remained bound for the entire course) | earliest time at which Stat3ER-DNA binding was detected after stimulation (4HT 1 microM) [min] | time of maximum measured Stat3ER-DNA binding (4HT 1 microM) [h] | Stat3-ER nuclear translocation and DNA binding to Stat3-specific oligonucleotide probe (4HT 1 microM, Stat3-ER-expressing A375 cells)
1 | oncostatin M [OSM] | could be detected 15 min after addition of OSM and decreased after 1 hr of treatment | enhanced |  |  | 
2 | CCC(=C(c1ccc(O)cc1)c1ccc(OCCN(C)C)cc1)c1ccccc1 [4HT, 4-hydroxytamoxifen, reference compound] |  |  | 20 | 24 | induced nuclear translocation and DNA-binding
